Reference: patent publication US9896445B2, “Heterocyclic inhibitors of ERK1 and ERK2 and their use in the treatment of cancer” (Asana Biosciences, LLC, priority 2015, dated 2018)
Like-named read-outs stand apart in the source and are kept apart here.

Assays:
[1] = test system: human lung carcinoma xenograft model (A549; harboring KRAS mutation); test: A549 human lung carcinoma xenograft model, tumor growth inhibition; assay type: in vivo, mice; conditions: 50 mg/kg BID orally for 20 days
Procedure: (§1) In Vivo Studies in Tumor Xenograft Models
(§2) Tumor Cell Implantation and Randomization of Animals
(§3) Foxn1 nu/nu strain of female mice (obtained from Charles River Laboratories, USA), 8-10 weeks of age, body weight range 23-25 g, were used for the tumor xenograft efficacy studies. Human cancer cell lines (such as melanoma A375, colorectal HT29, pancreatic BxPC3, colorectal HCT116, and lung A549) were first grown in vitro, and then about five million (5×10^6) of these cells in 100 μL of serum free medium were mixed with an equal amount of matrigel, and the entire mixture was injected subcutaneously at the right flank region of mice. The tumors were measured with Vernier calipers periodically after the first week of injection. When the tumor volume reached 120-150 mm^3 (about 3-4 weeks after injection) the animals were randomized into different groups so that their tumor volume was approximately the same in all groups.
(§4) Determination of In Vivo Efficacy of Tumor Growth Inhibition
(§5) For PO dosing, the compounds were prepared in a formulation containing 0.5% Methyl cellulose and 0.01% Tween 80. For IV, SC, or IP dosing, the compounds were prepared in 6% solutol-ethanol (1:1), 6% DMSO and 88% saline. Animals were dosed with compounds prepared in specific formulations via PO, IP or SC route either QD or BID at the required doses. Tumors size and body weights were measured twice or thrice in a week. Tumors were harvested at the end of the study after euthanizing the animals according to approved protocols. […]
(§6) Changes in tumor volume (Δ volumes) for each treated (T) and control (C) group were calculated by subtracting the mean tumor volume on the first day of treatment (starting day) from the mean tumor volume on the specified observation day. […]
(§7) Percentage tumor growth inhibition was calculated as [100−% T/C]. Percentage body weight change was calculated as [(Body weight on specified observation day−Body weight on starting day)/Body weight on starting day]×100.

[2] = target: T1, ERK2 (Homo sapiens, UniProt P28482); test: ERK2 HTRF (biochemical) assay; conditions: HTRF
T1 construct: purchased Jubilant Biosys
In short: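 Readout was time-resolved FRET between europium anti-phospho-MBP and streptavidin-APC after a 60-min room-temperature kinase step. That step used ERK2 (25 nM in enzyme mix), biotinylated MBP peptide (1 uM) and ATP (24 uM) from the substrate mix, in pH 7.5 Tris buffer.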

[3] = test system: phospho-RSK (the downstream target of ERK1/2); test: Pharmacodynamic assay, phospho-RSK in A375 tumor samples; assay type: in vivo, mice; conditions: A375 tumor samples harvested at 1 h after dosing at 50 mg/kg PO, compared to vehicle control
Procedure: as §3, §5

[4] = test system: human colon cancer xenograft model (HT-29) harboring B-RAF V600E mutation; test: HT-29 human colon cancer xenograft model, tumor growth inhibition; assay type: in vivo, mice; conditions: HT-29 xenograft
Procedure: as §1, §2
as §3, with “When the tumor volume reached 120-150 mm^3 (about 3-4 weeks after injection) the animals were randomized into different groups so that their tumor volume was approximately the same in all groups.” left out
(§8) For PO dosing, the compounds were prepared in a formulation containing 0.5% Methyl cellulose and 0.01% Tween 80. […] Tumors size and body weights were measured twice or thrice in a week. […]
as §6, §7

[5] = target: T2, ERK1 (Homo sapiens, UniProt P27361); test: ERK1 HTRF (biochemical) assay; conditions: HTRF
T2 construct: purchased Jubilant Biosys
Procedure: ERK1 and ERK2 HTRF (Biochemical) Assays
These assays employed a homogeneous time resolved fluorescence (HTRF) technique. […] The plate was incubated at room temperature for 60 min with shaking. […] The IC50 values (half maximal inhibitory concentration values) were subsequently determined using a sigmoidal dose-response curve (variable slope) in GraphPad Prism® 5 software.

[6] = test system: human pancreatic carcinoma xenograft model, BxPC3 (wild type KRAS); test: BxPC3 human pancreatic carcinoma xenograft model, tumor growth inhibition; assay type: in vivo, mice
Procedure: as §1, §2
as §3, with “When the tumor volume reached 120-150 mm^3 (about 3-4 weeks after injection) the animals were randomized into different groups so that their tumor volume was approximately the same in all groups.” left out
as §8, §6, §7

[7] = test system: human melanoma xenograft model (A375) harboring B-RAF V600E mutation; test: A375 human melanoma xenograft model, tumor growth inhibition; assay type: in vivo, mice
Procedure: as §1, §2, §3, §4, §5, §6, §7

[8] = test system: human colon cancer xenograft model (HCT116; harboring KRAS mutation); test: HCT116 human colon cancer xenograft model, tumor growth inhibition; assay type: in vivo, mice; conditions: 50 mg/kg BID orally for 24 days
Procedure: as §1, §2
as §3, with “When the tumor volume reached 120-150 mm^3 (about 3-4 weeks after injection) the animals were randomized into different groups so that their tumor volume was approximately the same in all groups.” left out
as §8, §6, §7

[9] = test system: phospho-RSK1(S380); test: Phospho-RSK1(S380) ELISA assay in HT-29 cells; assay type: cell-based, human; conditions: read-out: Mechanist Cell Assay RSK1 Phos HT29 IC50
Procedure: Phospho-RSK1(S380) ELISA Assay
HT-29 cells (colorectal carcinoma, B-RafV600E); obtained from ATCC, USA) were seeded (60,000 cells/well) in a 96-well plate and incubated at 37° C./5% CO2 overnight and then treated with desired compound dilutions for 2 h. Medium was removed and cells were rinsed once with ice-cold 1×PBS, then 0.070 mL ice-cold 1× cell lysis buffer containing 1 mM PMSF was added to each well and the plate was incubated on a shaker for 2 h and 30 min at 4° C. The plate was then centrifuged for 20 min (×4000 rpm) at 4° C. and the supernatant was transferred to a new plate. Cell lysates were diluted with sample diluent at a ratio of 1:1. The ELISA was then carried out following the manufacturer's protocol (PathScan® phospho-RSK1(Ser380) Sandwich ELISA Kit, Cell Signaling Technologies). The plate was read at 450 nm within 30 min after adding STOP solution. The IC50 values were subsequently determined using a sigmoidal dose-response curve (variable slope) in GraphPad Prism® 5 software.

[10] = test system: HCT116 (colorectal carcinoma, K Ras G13D) cells; test: Cell proliferation (Alamar Blue) assay, HCT116; assay type: cell-based, human
Procedure: (§9) Cell Proliferation (Alamar Blue) Assay
(§10) HT-29 (colorectal carcinoma, B-RafV600E), HCT116 (colorectal carcinoma, K Ras G13D), A375 (melanoma, B-RafV600E) and SK-Mel2 (melanoma, NRAS Q61R) cells (obtained from ATCC, USA) were seeded (5000 cells/well) in 96-well tissue culture plate and incubated at 37° C./5% CO2 for 16-24 hours. The cells were then treated with compounds, at concentrations typically from 0.0005 to 10 uM prepared in 3-fold serial dilutions. The plates were then incubated for 72 h at 37° C./5% CO2 in a moist environment. Then Alamar Blue™ reagent (final concentration 1×) was added to each well and incubated for 1-3 h at 37° C./5% CO2. The plates were read on fluorescence reader at 540 nm excitation and 590 nm emission wavelengths. The IC50 values were subsequently determined using a sigmoidal dose-response curve (variable slope) using GraphPad Prism® 5 software.

[11] = test system: HT-29 (colorectal carcinoma, B-RafV600E) cells; test: Cell proliferation (Alamar Blue) assay, HT-29; assay type: cell-based, human; conditions: HT29 cells
Procedure: as §9, §10

[12] = 50 mg/kg BID orally for 19 days
[13] = Homo sapiens, HCT-116, HCT116 cells

T2 sequence (P27361 whole entry): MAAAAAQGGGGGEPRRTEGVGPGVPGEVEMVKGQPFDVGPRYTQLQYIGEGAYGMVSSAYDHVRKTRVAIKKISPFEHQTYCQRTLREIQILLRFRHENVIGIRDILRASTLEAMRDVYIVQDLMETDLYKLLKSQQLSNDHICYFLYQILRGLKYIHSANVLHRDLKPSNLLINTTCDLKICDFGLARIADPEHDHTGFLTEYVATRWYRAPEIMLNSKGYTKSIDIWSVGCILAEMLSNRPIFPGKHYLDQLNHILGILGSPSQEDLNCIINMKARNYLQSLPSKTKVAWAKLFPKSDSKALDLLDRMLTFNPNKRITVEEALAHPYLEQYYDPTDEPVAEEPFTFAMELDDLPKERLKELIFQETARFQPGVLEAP
T1 sequence (P28482 whole entry): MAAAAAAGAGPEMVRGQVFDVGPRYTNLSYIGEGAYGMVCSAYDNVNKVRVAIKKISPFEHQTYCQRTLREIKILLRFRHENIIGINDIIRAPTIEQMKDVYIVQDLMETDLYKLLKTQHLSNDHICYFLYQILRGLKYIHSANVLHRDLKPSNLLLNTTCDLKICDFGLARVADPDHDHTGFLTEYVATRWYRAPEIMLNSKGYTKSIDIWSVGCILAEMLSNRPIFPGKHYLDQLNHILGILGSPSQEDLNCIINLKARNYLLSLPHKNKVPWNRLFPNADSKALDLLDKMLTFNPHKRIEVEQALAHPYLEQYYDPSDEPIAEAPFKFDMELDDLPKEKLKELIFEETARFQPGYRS

Cc1cnc(NC2CCOCC2)nc1-n1cnc(C(=O)N[C@H](CN)c2cccc(Cl)c2)c1.O=S(=O)(O)c1ccccc1 [Example 300, (S)-N-(2-amino-1-(3-chlorophenyl)-ethyl)-1-(5-methyl-2-((tetrahydro-2H-pyran-4-yl)amino)-pyrimidin-4-yl)-1H-imidazole-4-carboxamide benzenesulfonic acid salt]
body weight loss [1]: no significant body weight loss

Cc1cnc(NC2CCOCC2)nc1-n1cnc(C(=O)NC(CO)c2cccc(Cl)c2)c1 (stereo not shown) [Compound 201, N-(1-(3-chlorophenyl)-2-hydroxyethyl)-1-(5-methyl-2-((tetrahydro-2H-pyran-4-yl)amino)pyrimidin-4-yl)-1H-imidazole-4-carboxamide]
IC50 [2]: ≤ 50 nM
inhibition of phospho-RSK [3]: about 66%
body weight loss ([4]; 50 mg/kg BID orally for 20 days): no significant body weight loss
tumor growth inhibition ([4]; dosed orally at 50 mg/kg BID for 20 days): approximately 50%
IC50 [5]: < 50 nM
body weight loss ([6]; 50 mg/kg BID orally for 25 days): no significant body weight loss
tumor growth inhibition ([6]; dosed orally at 50 mg/kg BID for 25 days): about 63%

Cc1cnc(NC2CCOCC2)nc1-n1cnc(C(=O)N[C@H](CO)c2cccc(Cl)c2)c1 [Compound 211, (S)-N-(1-(3-chlorophenyl)-2-hydroxyethyl)-1-(5-methyl-2-((tetrahydro-2H-pyran-4-yl)amino)pyrimidin-4-yl)-1H-imidazole-4-carboxamide]
IC50 [2]: ≤ 50 nM
inhibition of phospho-RSK [3]: ~84%
body weight loss ([7]; 50 mg/kg BID orally for 17 days): no significant body weight loss
IC50 [5]: < 50 nM
melting point: 145 °C

Cc1cnc(NC2CCOCC2)nc1-n1cnc(C(=O)N[C@H](CN)c2cccc(Cl)c2)c1 (single isomer, unassigned) [Compound 225a]
IC50 [2]: ≤ 50 nM
body weight loss [7, 12]: no significant body weight loss
IC50 [5]: < 50 nM
body weight loss [8]: no significant body weight loss

Cc1cnc(NC2CCOCC2)nc1-n1cnc(C(=O)N[C@H](CN)c2cc(F)cc(Cl)c2)c1.O=S(=O)(O)c1ccccc1 [Example 302, (S)-N-(2-amino-1-(3-chloro-5-fluoro-phenyl)ethyl)-1-(5-methyl-2-((tetrahydro-2H-pyran-4-yl)amino)-pyrimidin-4-yl)-1H-imidazole-4-carboxamide benzenesulfonic acid salt]
body weight loss [1]: no significant body weight loss

Cc1cnc(NC2CC(F)(F)C2)nc1-n1cnc(C(=O)N[C@H](CN)c2cccc(Cl)c2)c1.O=S(=O)(O)c1ccccc1 [Example 304, (S)-N-(2-amino-1-(3-chlorophenyl)-ethyl)-1-(2-((3,3-difluorocyclobutyl)amino)-5-methyl-pyrimidin-4-yl)-1H-imidazole-4-carboxamide benzenesulfonic acid salt]
body weight loss [1]: no significant body weight loss

Cc1cnc(NC2CCOCC2)nc1-n1cnc(C(=O)NC(CN)c2cc(F)cc(Cl)c2)c1 (stereo not shown) [Compound 236, N-(2-amino-1-(3-chloro-5-fluoro-phenyl)ethyl)-1-(5-methyl-2-((tetrahydro-2H-pyran-4-yl)amino)-pyrimidin-4-yl)-1H-imidazole-4-carboxamide]
IC50 ([9]; HT29 cells): ≤ 100 nM
IC50 ([10]; HCT116 cells): ≤ 100 nM
IC50 [11]: ≤ 100 nM

Cc1cnc(NC2CCOCC2)nc1-n1cnc(C(=O)N[C@]2(c3cccc(Cl)c3)C[C@H](O)C2)c1 [Compound 245, N-((1s,3s)-1-(3-chlorophenyl)-3-hydroxycyclobutyl)-1-(5-methyl-2-((tetrahydro-2H-4-yl)amino)pyrimidin-4-yl)-1H-imidazole-4-carboxamide]
IC50 [2]: ≤ 50 nM
IC50 ([9]; Homo sapiens, HT-29, HT29 cells): 250 to 500 nM
IC50 [10, 13]: 500 to 2500 nM
IC50 [5]: < 50 nM

Cc1cnc(Nc2ccc(F)cc2)cc1-n1cnc(C(=O)NC(CN)c2ccccc2)c1 (single isomer, unassigned) [Compound 227, N-(2-amino-1-phenylethyl)-1-(2-((4-fluorophenyl)-amino)-5-methyl-pyridin-4-yl)-1H-imidazole-4-carboxamide]
IC50 [2]: ≤ 50 nM
IC50 [10, 13]: > 2500 nM
IC50 [5]: < 50 nM

Cc1cnc(NC2CC(F)(F)C2)nc1-n1cnc(C(=O)N[C@H](CN)c2cccc(Cl)c2)c1 [Example 259, (S)-N-(2-amino-1-(3-chlorophenyl)-ethyl)-1-(2-((3,3-difluorocyclobutyl)amino)-5-methyl-pyrimidin-4-yl)-1H-imidazole-4-carboxamide]
body weight loss [7, 12]: no significant body weight loss
body weight loss [8]: no significant body weight loss
